We go through two molecules from ChEMBL document CHEMBL1156230, “Identification of phenylsulfone-substituted quinoxaline (WYE-672) as a tissue selective liver X-receptor (LXR) agonist” (J Med Chem, 2010).

The test system of one data set is HepG2. Briefly: Agonist activity at LXR in human HepG2 cells assessed as lipid accumulation relative to T0901317.
A short description of data set [1]: Cmax in C57 mouse at 10 mg/kg, po. Details: dose 10 mg/kg, route oral. The settings on record: in vivo. It is filed as ADME, organism-based.
Data set [2] can be described thus: Half life in C57 mouse at 10 mg/kg, po. The note with it: in vivo. It is filed as ADME, organism-based. Details: dose 10 mg/kg, route oral.
Data set [3] relates to Mus musculus. Briefly: Antiatherosclerotic activity against high fat/high cholesterol fed LDLR-deficient mouse assessed as reduction in aortic arch lesion burden at 3 mg/kg/day administered with diet relative to control. It is filed as functional, Pharyngeal arch artery. The arrangement: scale not given: the % may be the effect or the level left.
For data set [4], the system named is THP-1. Description: Induction of [3H]cholesterol efflux in human THP1 cells assessed as lipid accumulation relative to T0901317. It counts as functional.
For data set [5], the target named is T1, Oxysterols receptor LXR-beta (Homo sapiens, UniProt P55055). Briefly: Displacement of [3H]T0901317 from human LXRbeta ligand binding domain.
T1 sequence (P55055 whole entry, the tested form may be a part): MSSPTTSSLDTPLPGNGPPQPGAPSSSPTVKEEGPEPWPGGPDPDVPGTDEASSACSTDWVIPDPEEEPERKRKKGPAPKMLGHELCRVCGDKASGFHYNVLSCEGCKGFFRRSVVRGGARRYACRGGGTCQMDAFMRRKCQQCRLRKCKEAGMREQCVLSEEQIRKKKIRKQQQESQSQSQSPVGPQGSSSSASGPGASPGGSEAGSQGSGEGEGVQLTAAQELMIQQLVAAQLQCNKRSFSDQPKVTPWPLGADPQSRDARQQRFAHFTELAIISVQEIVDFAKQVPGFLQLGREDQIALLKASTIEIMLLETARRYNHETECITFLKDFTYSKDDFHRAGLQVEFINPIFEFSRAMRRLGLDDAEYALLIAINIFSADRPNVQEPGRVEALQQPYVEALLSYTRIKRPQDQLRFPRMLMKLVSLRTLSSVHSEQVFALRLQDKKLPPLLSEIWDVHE
In data set [6] the test system is THP-1. Briefly: Induction of [3H]cholesterol efflux in human THP1 cells.
The target in data set [7] is T2, Glucocorticoid receptor (Homo sapiens) (UniProt P04150).
T2 sequence (whole entry): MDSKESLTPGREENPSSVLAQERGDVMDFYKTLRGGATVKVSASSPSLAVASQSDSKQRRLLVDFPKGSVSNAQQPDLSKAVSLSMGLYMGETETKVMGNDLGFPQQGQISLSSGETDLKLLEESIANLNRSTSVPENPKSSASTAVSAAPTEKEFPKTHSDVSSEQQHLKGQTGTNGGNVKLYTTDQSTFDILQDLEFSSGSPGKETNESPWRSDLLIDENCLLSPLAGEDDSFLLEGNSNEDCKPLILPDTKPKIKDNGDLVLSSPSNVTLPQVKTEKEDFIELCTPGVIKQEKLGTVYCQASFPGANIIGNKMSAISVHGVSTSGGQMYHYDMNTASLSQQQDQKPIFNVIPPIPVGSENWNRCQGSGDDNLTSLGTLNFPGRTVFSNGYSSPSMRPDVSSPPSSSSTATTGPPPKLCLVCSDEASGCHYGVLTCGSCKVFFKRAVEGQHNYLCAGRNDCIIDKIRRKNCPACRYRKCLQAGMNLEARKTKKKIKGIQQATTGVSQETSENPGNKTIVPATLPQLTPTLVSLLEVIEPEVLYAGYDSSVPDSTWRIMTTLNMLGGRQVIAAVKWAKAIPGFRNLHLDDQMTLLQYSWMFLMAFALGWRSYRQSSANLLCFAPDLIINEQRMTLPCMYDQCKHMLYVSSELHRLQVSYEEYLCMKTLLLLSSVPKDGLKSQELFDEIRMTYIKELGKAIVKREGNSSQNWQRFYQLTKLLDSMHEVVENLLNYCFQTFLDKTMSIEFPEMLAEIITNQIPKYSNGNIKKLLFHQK
Briefly: Binding affinity to glucocorticoid receptor.

Data set [8] is described as follows: Plasma concentration in high fat/high cholesterol fed LDLR-deficient mouse at 3 mg/kg, qd administered with diet for 8 weeks measured after 3 hrs of last dose. Details: dose 3 mg/kg. The settings on record: po. It is filed as ADME, organism-based.
Data set [9] concerns THP-1. Description: cells. The note with it: Homo sapiens.
Data set [10] deals with T1, Oxysterols receptor LXR-beta.
Data set [11] is described as follows: Binding affinity to thyroid hormone receptor.
The target of data set [12] is T3, Androgen receptor (Homo sapiens) (UniProt P10275).
T3 sequence (whole entry): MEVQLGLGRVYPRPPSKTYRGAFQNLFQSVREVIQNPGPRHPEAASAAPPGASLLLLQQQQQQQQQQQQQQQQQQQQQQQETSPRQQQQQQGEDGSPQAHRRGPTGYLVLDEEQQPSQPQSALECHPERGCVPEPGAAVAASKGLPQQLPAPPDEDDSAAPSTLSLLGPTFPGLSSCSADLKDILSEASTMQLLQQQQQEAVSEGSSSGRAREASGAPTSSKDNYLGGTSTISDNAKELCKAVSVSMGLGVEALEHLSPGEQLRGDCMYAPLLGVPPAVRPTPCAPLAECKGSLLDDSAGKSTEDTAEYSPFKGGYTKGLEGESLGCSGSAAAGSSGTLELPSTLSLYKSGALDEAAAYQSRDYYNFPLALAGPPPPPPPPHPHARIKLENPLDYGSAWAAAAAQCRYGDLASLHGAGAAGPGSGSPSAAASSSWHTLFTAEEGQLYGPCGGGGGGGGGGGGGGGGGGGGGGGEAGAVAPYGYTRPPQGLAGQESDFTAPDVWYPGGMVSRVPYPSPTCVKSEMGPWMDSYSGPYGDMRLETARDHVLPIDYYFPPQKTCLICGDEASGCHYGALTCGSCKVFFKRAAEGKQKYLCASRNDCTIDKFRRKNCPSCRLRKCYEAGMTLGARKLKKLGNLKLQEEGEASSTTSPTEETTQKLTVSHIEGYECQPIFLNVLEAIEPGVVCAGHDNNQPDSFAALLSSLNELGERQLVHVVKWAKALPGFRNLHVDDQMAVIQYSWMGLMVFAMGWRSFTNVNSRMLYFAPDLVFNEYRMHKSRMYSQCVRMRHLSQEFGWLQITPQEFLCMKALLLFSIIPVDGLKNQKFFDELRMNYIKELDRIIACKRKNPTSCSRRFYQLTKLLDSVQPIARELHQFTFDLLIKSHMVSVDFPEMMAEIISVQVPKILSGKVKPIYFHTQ
Briefly: Binding affinity to androgen receptor.

The nature of data set [13]: Plasma concentration in high fat/high cholesterol fed LDLR-deficient mouse at 0.6 mg/kg, qd administered with diet for 8 weeks measured after 3 hrs of last dose. It counts as ADME, organism-based. Details: dose 0.6 mg/kg. The settings on record: po.
Data set [14] deals with Mus musculus. Description: Antiatherosclerotic activity against high fat/high cholesterol fed LDLR-deficient mouse assessed as pltp gene regulation at 3 mg/kg administered with diet for 7 days by Experion chip analysis. It counts as functional, organism-based. The arrangement: dose 3 mg/kg.
Data set [15] is described as follows: Plasma concentration in high fat/high cholesterol fed LDLR-deficient mouse administered with diet for 8 weeks measured after 3 hrs of last dose. It counts as ADME, organism-based. The note with it: po.
The subject of data set [16] is Mus musculus. Briefly: Antiatherosclerotic activity against high fat/high cholesterol fed LDLR-deficient mouse assessed as IPl gene regulation at 3 mg/kg administered with diet for 7 days by Experion chip analysis. It is filed as functional, organism-based. Details: dose 3 mg/kg.
Data set [17] deals with Mus musculus. Description: Antiatherosclerotic activity against high fat/high cholesterol fed LDLR-deficient mouse assessed as ldlr gene regulation at 0.6 mg/kg administered with diet for 7 days by Experion chip analysis. It counts as functional, organism-based. The arrangement: dose 0.6 mg/kg.
Data set [18] deals with Mus musculus. Description: Antiatherosclerotic activity against high fat/high cholesterol fed LDLR-deficient mouse assessed as Lipc gene regulation at 0.6 mg/kg administered with diet for 7 days by Experion chip analysis. It is filed as functional, organism-based. Details: dose 0.6 mg/kg.

Activity calls are given as the source filed them. Some results are limits rather than exact numbers.

As usually defined, the Cmax is the peak of the concentration-time curve. A word on the half-life: it is the time needed for the level to fall by half in the phase considered. Broadly, the IC50 is the concentration that gives 50% inhibition. The term EC50 denotes the concentration that produces a half-maximal response.

For the molecule `Cc1nc2c(C(F)(F)F)cccc2nc1-c1ccc(-c2cccc(S(C)(=O)=O)c2)cc1`, the Efficacy was 7% with HepG2 and 60% with THP-1 [4]. The highest level in data set [1] (Cmax) was 229 ng/mL. The half-life in data set [2] was above 20 h. Moreover, the Activity in the data set on Mus musculus [3] was 51%; in the data set with THP-1 [6], “Dose-dependent effect”. In [5], this molecule returned a concentration for half-maximal inhibition (IC50) of 53 nM. For the same molecule, the result in [7], in data set [11] and in data set [12] was inactive. In addition, the concentration at 3 h in data set [8] was found to be 10800 ng/mL; in data set [13] it was 1020 ng/mL. Also, the EC50 in the data set with THP-1 [9] turned out to be 1090 nM; in data set [10], 580 nM.
For the molecule `O=C(O)Cc1cccc(OCCCN(Cc2cccc(C(F)(F)F)c2Cl)CC(c2ccccc2)c2ccccc2)c1`, the result in the data set with Mus musculus [14], with Mus musculus [16], in the data set with Mus musculus [17] and in the data set on Mus musculus [18] was Active. Besides, the concentration at 3 h in data set [15] came out at 175 ng/mL.
